One assay addresses WDR5 (Homo sapiens (Human), UniProt P61964). The experiment in a line: Surface Plasmon Resonance (SPR) assay, KD and residence time. The class given is binding. The settings on record: surface plasmon resonance (SPR); read-out: WDR5 binding affinity (KD).
Consider `C[C@@H]1CN(c2cc(F)c(-c3csc(CN4CCOCC4)n3)cc2NC(=O)c2cn(C)c(=O)cc2C(F)F)C[C@H](C)N1C` [Example 749, 4-(difluoromethyl)-N-[4-fluoro-5-[2-(morpholin-4-ylmethyl)-1,3-thiazol-4-yl]-2-[(3R,5S)-3,4,5-trimethylpiperazin-1-yl]phenyl]-1-methyl-6-oxopyridine-3-carboxamide], for which the Kd turned out to be 10.6 nM. `C[C@@H]1CN(c2cc(F)c(-c3nc(CN4CCOCC4)cs3)cc2NC(=O)c2c[nH]c(=O)cc2C(F)(F)F)C[C@H](C)N1C` [Example 750, N-[4-fluoro-5-[4-(morpholin-4-ylmethyl)-1,3-thiazol-2-yl]-2-[(3R,5S)-3,4,5-trimethylpiperazin-1-yl]phenyl]-6-oxo-4-(trifluoromethyl)-1H-pyridine-3-carboxamide]: the dissociation constant Kd came to 1.71 nM.

With `C[C@@H]1CN(c2cc(F)c(-c3ncc(CN4CCOCC4)s3)cc2NC(=O)c2c[nH]c(=O)cc2C(F)(F)F)C[C@H](C)N1C` [Example 751, N-[4-fluoro-5-[5-(morpholin-4-ylmethyl)-1,3-thiazol-2-yl]-2-[(3R,5S)-3,4,5-trimethylpiperazin-1-yl]phenyl]-6-oxo-4-(trifluoromethyl)-1H-pyridine-3-carboxamide], the dissociation constant Kd was determined as 8.27 nM. On the same count and under the same terms, to `C[C@@H]1CN(c2cc(F)c(-c3cc(F)c(C(=O)N(C)C4CCCCC4)c(F)c3)cc2NC(=O)c2c[nH]c(=O)cc2C(F)(F)F)C[C@H](C)N1C` [Example 760, N-(4′-(cyclohexyl(methyl)carbamoyl)-3′,5′,6-trifluoro-4-((3S,5R)-3,4,5-trimethylpiperazin-1-yl)-[1,1′-biphenyl]-3-yl)-6-oxo-4-(trifluoromethyl)-1,6-dihydropyridine-3-carboxamide] belongs 2 nM; to `C[C@@H]1CN(c2cc(F)c(-c3cc(F)c(C(=O)N(C)C4CCCC4)c(F)c3)cc2NC(=O)c2c[nH]c(=O)cc2C(F)(F)F)C[C@H](C)N1C` [Example 761, N-(4′-(cyclopentyl(methyl)carbamoyl)-3′,5′,6-trifluoro-4-((3S,5R)-3,4,5-trimethylpiperazin-1-yl)-[1,1′-biphenyl]-3-yl)-6-oxo-4-(trifluoromethyl)-1,6-dihydropyridine-3-carboxamide], 2 nM; to `C[C@@H]1CN(c2cc(F)c(-c3cc(F)c(C(=O)N[C@@H]4CCOC4)c(F)c3)cc2NC(=O)c2c[nH]c(=O)cc2C(F)(F)F)C[C@H](C)N1C` [Example 762, 6-oxo-N-(3′,5′,6-trifluoro-4′-(((R)-tetrahydrofuran-3-yl)carbamoyl)-4-((3S,5R)-3,4,5-trimethylpiperazin-1-yl)-[1,1′-biphenyl]-3-yl)-4-(trifluoromethyl)-1,6-dihydropyridine-3-carboxamide], 0.9 nM. As for `C[C@@H]1CN(c2cc(F)c(-c3cc(F)c(C(=O)N(C)C4COC4)c(F)c3)cc2NC(=O)c2c[nH]c(=O)cc2C(F)(F)F)C[C@H](C)N1C` [Example 763, 6-oxo-N-(3′,5′,6-trifluoro-4′-(methyl(oxetan-3-yl)carbamoyl)-4-((3S,5R)-3,4,5-trimethylpiperazin-1-yl)-[1,1′-biphenyl]-3-yl)-4-(trifluoromethyl)-1,6-dihydropyridine-3-carboxamide], the dissociation constant Kd amounted to 0.7 nM.

Regarding “N-[4-fluoro-5-[2-[(2R)-2-propan-2-ylmorpholin-4-yl]pyrimidin-5-yl]-2-[(3S,5R)-3,4,5-trimethylpiperazin-1-yl]phenyl]-6-oxo-4-(trifluoromethyl)-1H-pyridine-3-carboxamide [Example 548]”, the Kd came out at 0.5 nM. On the same count and under the same terms, to “N-[4-fluoro-5-[2-[(2R,6S)-2,6-dimethylmorpholin-4-yl]pyrimidin-4-yl]-2-[(3R)-3,4-dimethylpiperazin-1-yl]phenyl]-6-oxo-4-(trifluoromethyl)-1H-pyridine-3-carboxamide [Example 698]” belongs 1.59 nM; to “N-[5-[1-(2-cyanopyrimidin-4-yl)-3,6-dihydro-2H-pyridin-5-yl]-4-fluoro-2-[(3R)-3,4-dimethylpiperazin-1-yl]phenyl]-4-(difluoromethyl)-6-oxo-1H-pyridine-3-carboxamide [Example 740]”, 4.47 nM; to “N-[5-[1-(5-cyano-1,3-thiazol-2-yl)-3,6-dihydro-2H-pyridin-4-yl]-4-fluoro-2-[(3R)-3,4-dimethylpiperazin-1-yl]phenyl]-4-fluoro-2-(trifluoromethyl)benzamide [Example 690]”, 4.17 nM. The same measure, in the same setting: for “N-[5-[2-[4-(cyclopropylmethyl)piperazin-1-yl]pyrimidin-5-yl]-4-fluoro-2-[(3R)-3,4-dimethylpiperazin-1-yl]phenyl]-4-fluoro-2-(trifluoromethyl)benzamide [Example 560]” the value was 1.12 nM.

For the next assay, the system named is MV4-11 cells. The experiment in a line: Cell proliferation assay (ATPlite). It is filed as cell-based. The following applies: Homo sapiens, MV4-11, 120 h; MV-411 cells, five days; read-out: In vitro whole cell potency in MV-411 cells, (IC50). As to the method: (iv) Cell Proliferation Assay
MV4-11 cells were seeded into a 96-well plate at 1,000 cells/well in 150 μl medium (Alpha-MEM containing 10% FBS, 100 μg/ml Normocin, and 50 μg/ml Gentamycin, Invitrogen). A HP D300 digital dispenser was used to dose cells with DMSO or test compounds across a 10-point range of concentrations (high dose of 10 μM), and cultures were grown in a humidified 5% CO2 incubator at 37° C. After five days, plates were removed from the incubator and equilibrated to room temperature. An equal volume of ATPlite assay reagent was added to each well, and samples were processed according to manufacturer's instructions (Perkin Elmer). Luminescent signal was measured using an Envision plate reader equipped with a US-Luminescence detector.
As to `CC1CN(c2cc(F)c(-c3ccc(N4CCOCC4)c(F)c3)cc2NC(=O)c2c[nH]c(=O)cc2C(F)(F)F)CCN1C` (stereo in doubt) [Example 201, N-[4-fluoro-5-(3-fluoro-4-morpholin-4-ylphenyl)-2-[(3R)-3,4-dimethylpiperazin-1-yl]phenyl]-6-oxo-4-(trifluoromethyl)-1H-pyridine-3-carboxamide], the IC50 worked out at 113 nM.

As for `CC1CN(c2cc(F)c(-c3cnc(N4CCOCC4)nc3)cc2NC(=O)c2cn(C)c(=O)cc2C(F)F)CCN1C` (stereo in doubt) [Example 216, 4-(difluoromethyl)-N-[4-fluoro-5-(2-morpholin-4-ylpyrimidin-5-yl)-2-[(3R)-3,4-dimethylpiperazin-1-yl]phenyl]-1-methyl-6-oxopyridine-3-carboxamide], the IC50 was 388 nM. `CN1CCN(c2cc(F)c(-c3cccc(CN4CCOCC4)c3)cc2NC(=O)c2c[nH]c(=O)cc2C(F)(F)F)CC1` [Example 2, N-[4-fluoro-2-(4-methylpiperazin-1-yl)-5-[3-(morpholin-4-ylmethyl)phenyl]phenyl]-6-oxo-4-(trifluoromethyl)-1H-pyridine-3-carboxamide]: the IC50 came to 2250 nM.

Take `CN1CCN(c2cc(F)c(-c3ccc(N4CCOCC4)nc3)cc2NC(=O)c2c[nH]c(=O)cc2C(F)(F)F)CC1` [Example 4, N-(4-fluoro-2-(4-methylpiperazin-1-yl)-5-(6-morpholinopyridin-3-yl)phenyl)-6-oxo-4-(trifluoromethyl)-1,6-dihydropyridine-3-carboxamide]: the IC50 turned out to be 574 nM. Still for that read-out and setting: to `CN1CCN(c2cc(F)c(-c3ccc4c(c3)OCO4)cc2NC(=O)c2c[nH]c(=O)cc2C(F)(F)F)CC1` [Example 5, N-(5-(benzo[d][1,3]dioxol-5-yl)-4-fluoro-2-(4-methylpiperazin-1-yl)phenyl)-6-oxo-4-(trifluoromethyl)-1,6-dihydropyridine-3-carboxamide] belongs 881 nM; to `CN1CCN(c2cc(F)c(-c3cnc(N4CCCC4)nc3)cc2NC(=O)c2c[nH]c(=O)cc2C(F)(F)F)CC1` [Example 9, N-(4-fluoro-2-(4-methylpiperazin-1-yl)-5-(2-(pyrrolidin-1-yl)pyrimidin-5-yl)phenyl)-6-oxo-4-(trifluoromethyl)-1,6-dihydropyridine-3-carboxamide], 507 nM; to `CN1CCN(c2cc(F)c(-c3cnc(NC4CC4)nc3)cc2NC(=O)c2c[nH]c(=O)cc2C(F)(F)F)CC1` [Example 10, N-(5-(2-(cyclopropylamino)pyrimidin-5-yl)-4-fluoro-2-(4-methylpiperazin-1-yl)phenyl)-6-oxo-4-(trifluoromethyl)-1,6-dihydropyridine-3-carboxamide], greater than 10000 nM. The same measure, in the same setting: to `CN1CCN(c2cc(F)c(-c3cnc(NC4CCCCC4)nc3)cc2NC(=O)c2c[nH]c(=O)cc2C(F)(F)F)CC1` [Example 11, N-(5-(2-(cyclohexylamino)pyrimidin-5-yl)-4-fluoro-2-(4-methylpiperazin-1-yl)phenyl)-6-oxo-4-(trifluoromethyl)-1,6-dihydropyridine-3-carboxamide] belongs 1270 nM; to `CCOc1ncc(-c2cc(NC(=O)c3c[nH]c(=O)cc3C(F)(F)F)c(N3CCN(C)CC3)cc2F)cn1` [Example 12, N-(5-(2-ethoxypyrimidin-5-yl)-4-fluoro-2-(4-methylpiperazin-1-yl)phenyl)-6-oxo-4-(trifluoromethyl)-1,6-dihydropyridine-3-carboxamide], 929 nM. Take `Cc1ncc(-c2cc(NC(=O)c3c[nH]c(=O)cc3C(F)(F)F)c(N3CCN(C)CC3)cc2F)cn1` [Example 13, N-(4-fluoro-2-(4-methylpiperazin-1-yl)-5-(2-methylpyrimidin-5-yl)phenyl)-6-oxo-4-(trifluoromethyl)-1,6-dihydropyridine-3-carboxamide]: the 50% inhibitory concentration (IC50) is greater than 10000 nM. Turning to `CN1CCN(c2cc(F)c(-c3ccc(NC4CCCCC4)nc3)cc2NC(=O)c2c[nH]c(=O)cc2C(F)(F)F)CC1` [Example 14, N-(5-(6-(cyclohexylamino)pyridin-3-yl)-4-fluoro-2-(4-methylpiperazin-1-yl)phenyl)-6-oxo-4-(trifluoromethyl)-1,6-dihydropyridine-3-carboxamide], the 50% inhibitory concentration (IC50) is 1520 nM. Still for that read-out and setting: for `CN1CCN(c2cc(F)c(-c3cnc(O)nc3)cc2NC(=O)c2c[nH]c(=O)cc2C(F)(F)F)CC1` [Example 15, N-(4-fluoro-5-(2-hydroxypyrimidin-5-yl)-2-(4-methylpiperazin-1-yl)phenyl)-6-oxo-4-(trifluoromethyl)-1,6-dihydropyridine-3-carboxamide] the value was greater than 10000 nM; for `CN1CCN(c2cc(F)c(-c3cnc(C#N)nc3)cc2NC(=O)c2c[nH]c(=O)cc2C(F)(F)F)CC1` [Example 16, N-(5-(2-cyanopyrimidin-5-yl)-4-fluoro-2-(4-methylpiperazin-1-yl)phenyl)-6-oxo-4-(trifluoromethyl)-1,6-dihydropyridine-3-carboxamide], 844 nM.

Values taken from patent US11319299B2, “Substituted carboxamides as inhibitors of WDR5 protein-protein binding” (PROPELLON THERAPEUTICS INC., priority 2016, dated 2022).
